Source: patent US20020058020A1, “Isolated amphiphilic peptides derived from the cytoplasmic tail of viral envelope proteins” (priority 1999, published 2002)
Ends that are not written are not given here. R1 = not defined here

How the values were obtained:
[1] = Peptide-induced K+ release from unilamellar liposomes (Example 2); settings: 22° C.; for % K+ - Release POPC: POPC liposomes; for % K+ - Release POPC:POPG1:1: POPC:POPG 1:1 liposomes; for % K+ - Release POPC:POPG,3:1: POPC:POPG 3:1 liposomes
Procedure: Peptide-induced K′ release from liposomes. Liposomes (see above) were made in 100 nM KCl, 10 mM Tris-HCl, pH 7.5. The external KCl was reduced to less than 0.1 mM by two passages through a PD10 column (Pharmacia Biotech AB, Uppsala, Sweden) equilibrated in NaCl buffer (100 mM NaCl, 10 mM Tris-HCl, pH 7.5). Potassium release from liposomes was detected by a K′-selective microelectrode (Micro-electrode Inc.) and recorded on VHS tape using a pulse-code modulator. Peptides were assayed at 10 μM and 30 μM.
Unilamellar liposomes formed from (i) POPC; (ii) POPC and POPG at a molar ratio of POPC: POPG of 3:1, or (iii) POPC and POPG at a molar ratio of POPC: POPG of 1:1 were prepared in 100 mM KC1 according to the procedure described in Example 1. Peptide-induced K+ release from the liposomes also was detected according to the procedure described in Example 1. All measurements were carried out at 22° C.

[2] = Peptide-induced K+ release from liposomes (Example 1); assay type: biochemical; settings: for % K+-release: liposomes POPG/POPC 1:3, 10 mg/ml, loaded with 100 mM KCl, total release with 0.1 M Triton X-100, <2% not detectable
Procedure: Liposomes were prepared from 1-Palmitoyl-2-Oleoyl-sn-Glycero-3-(Phospho-rac-(1-glycerol)) (POPG) and 1-Palmitoyl-2-Oleoyl-sn-Glycero-3-Phosphocholine (POPC) (Avanti Polar Lipids Inc., Birmingham, Ala.). The lipid-chloroform solutions were mixed at a molar ratio of 1:3 (POPG:POPC), dried under N2 and vacuum, sonicated, and taken through freeze-thaw cycles repeated a minimum of 5 times.
Peptide-induced K′ release from liposomes. […] Enzymol., Vol. 235, pgs. 699-713 (1994).
^b Percentage of the intraliposomal K^+ release induced by […] peptides from liposomes (POPG/POPC 1:3, 10 mg/ml) loaded with 100 mM KC1 and dialyzed against 100 mM NaCl buffer. […] . Total K^+ release was obtained with 0.1 M Triton X-100.
A novel approach was developed to measure the membrane activity of peptide 598-616. Peptide-induced release of K^+ from KCl-loaded lipid vesicles was detected using a K^+-selective electrode. The addition of 10 μM wild type peptide 598-616 causes 29% K^+ content release. At a concentration of 30 μM, about 70% K^+ content is released from liposomes (data not shown). For comparison, 10 μM melittin, a lytic component of bee venom, causes 31% K^+ content release.

NIH3T3 cells [3] = assay: Syncytia formation in env-transfected NIH3T3 cells; assay type: cell-based; settings: relative fusion efficiency, normalized to 616* = 100
NIH3T3 cells [4] = assay: Transduction assay, β-gal titer on NIH3T3 cells; assay type: cell-based; settings: WT = 100
[5] = tested on: XC6 cell co-cultured with env-transfected 293T cells; assay: End point cell-to-cell fusion assay, 293T/XC6 co-culture; settings: relative fusion efficiency, WT = 100
Procedure: Viral particles were obtained from 293T cells transfected transiently (n=3−5) with the expression plasmids for env, gag-pol, and β-gal, with wild type or mutant (616*, 601*, 598*, 595SR*, 578*, GLA ecto) env. Transduction efficiency of these virions (white bars=titers) was tested on NIH3T3 cells. The Env fusogenicity (filled bars =% fusion) was measured by expressing Env only in 293T cells. The indicator XC6 cells were added 24 hours post-transfection, were fixed 12 hours later and scored microscopically on ten 2 mm^2 grids for syncytia (cells with four or more nuclei).
Cell-To-Cell Fusion Assays For the end point fusion assay, 5×10^5 XC6 cells were added to the env transfected 293 T cells 20 hrs. post-transfection, and stained with methylene blue (0.01% in methanol) at about 36 hours post-transfection for syncytia (cells with 4 or more nuclei) scoring.
The end point fusion assay measures env-induced cell-to-cell fusion between env-transfected 293T cells and the ecotropic receptor expressing XC cells at 36 hrs post-transfection.

[6] = tested on: env-transfected 293T cells; assay: Cell surface envelope protein expression by indirect immunofluorescence; settings: relative, WT = 100
Procedure: NIH3T3 cells (1H10^5) , 293T or 293/12 (1H10^6) per 60 mm2 plates were transfected according to the Ca(PO4)2 transfection protocol of 5′-3′ Inc. (Boulder, Colo.) (day 1). For cell surface expression and co-culture experiments, 15 μg env expression plasmid was used.
Cell Surface Expression And The Analysis Of Viral Envelope Particle Incorporation Assays were done as described in Januszeski, et al., J. Virol., Vol. 71, pgs.

[7] = Circular dichroism analysis of α-helical content; assay type: physicochemical; settings: for secondary structure by CD (in words): aqueous vs liposome environment
Procedure: A. Membrane-Dependent Formation Of An α-Helical Structure By Peptide 598-616 As measured By Circular Dichroism (CD). The plot represents an average of 9 CD spectra for 50 μM peptide 598-616 in an aqueous solution (20 mM NaPO4,pH 7, dashed line), and in presence of liposomal membrane vesicles (POPG/POPC [1:3] liposomes in 20 mM Na2 PO4, pH 7.4; lipid to peptide molar ratio 100:1; solid line). The measurements were obtained for wavelength 195-250 nm at 20 mdeg sensitivity.
The peptides for circular dichroism (CD) analysis were used at a final concentration of 50 μM. The stock solution of extruded liposomes at 50 mg/ml was used. The final peptide-to-lipid molar ratio was 1/100 in 20 mM Na2PO4 buffer. CD spectra were obtained using a Jasco J-600 CD spectrometer. Samples were scanned from 250 nm to 195 nm using cuvettes with a path length of 1 mm. Each result represents an average of 9 scans.
To analyze the secondary structure of the peptides corresponding to MoMuLV cytoplasmic tail segments, the peptides 598-616 and 617-632 were evaluated by CD spectroscopy. The CD spectrum produced by the peptide 598-616 absorption of polarized light in an aqueous environment is characteristic of a random coil conformation (FIG. 2A, dotted line). […] The estimated percent α-helicity for peptide 598-616 is nearly 60%. Similar α-helical properties have been observed for the lytic amphiphilic segments from HIV-1 env cytoplasmic tail and the active component of bee venom, melittin (Eisenberg, et al., Biopolymers, Vol. 29, pgs. 171-177 (1992)). Thus, the computer-predicted α-helical structure for the region 598-616 is confirmed for peptide 598-616 by CD analysis in the presence of membranes.

[8] = Electron paramagnetic resonance analysis of spin labeled peptides with liposomes; assay type: physicochemical; settings: for aggregation state by EPR (in words): membrane-bound state or solution
Procedure: B. Spin-Labeled Peptide 598-616 Associates With Membranes As Determined By Electron Paramagnetic Resonance (EPR) Analysis. […]; lipid to peptide molar ratio 100:1; solid line). The arrow marks the position of a small component of free spin.
Spin labeled peptides (50 μM) diluted in buffer (50mM NaPO4, 100 mM NaCl, pH 7.4) were added to the extruded liposomes at a peptide-to-lipid molar ratio of greater than 1/100. X-band electron paramagnetic resonance (EPR) spectra were recorded at room temperature. The spin accessibility parameter (II) was determined for 20 mM nickel ethylenediaminediacetic acid, or NiEDDA, and O2 in equilibrium with air as previously described (Farahbakhsh, et al., Photochemistry and Photobiolocy, Vol. 56, pgs. 1019-1033 (1992)). The topology or context parameter φ was calculated as φ=ln [II(O2)/II(NiEDDA)] (Altenbach, et al., Proc. Nat. Acad. Sci., Vol. 91, pgs. 1667-1671 (1994)).
The structural features of the peptide 598-616 bound to membranes were investigated further by EPR analysis of corresponding peptides modified to contain single R1 nitroxide side chains at the positions indicated in FIG. 2C. For each labeled peptide in solution, the EPR spectrum consisted of three sharp resonance lines characteristic of a random coil for peptides containing R1 (Farahbakhsh, et al., Biochemistry, Vol. 34, pgs. 509-516 (1995)). A representative example is shown by the dotted line in FIG. 2B for the V606-R1 peptide. […] Judging from the line shapes, the contribution from the unbound peptide is very small, less than 1% (arrow FIG. 2B). All peptides 598-616 gave similar effects, although the individual line shapes varied (data not shown).
Spin-spin interactions between nitroxides result in spectral broadening over and above that due to motional effects (Mchaourab, et al., Biochemistry, Vol. 36, pgs. 307-316 (1997)).

Compound | % K+ - Release POPC [1] | % K+ - Release POPC:POPG1:1 [1] | % K+ - Release POPC:POPG,3:1 [1] | other results
598-616 F605C: peptide 598-616 with F605C substitution (ILNRLVQCVKDRISVVQAL; UniProt P03385 631-649, looked up, variant F605C) | 8% | 7% | 4% | 
CC[C@H](C)[C@H](NC(=O)CN)C(=O)NCC(=O)N[C@@H](C)C(=O)N[C@H](C(=O)N[C@@H](CC(C)C)C(=O)N[C@@H](CCCCN)C(=O)N[C@H](C(=O)N[C@@H](CC(C)C)C(=O)N[C@H](C(=O)N[C@H](C(=O)NCC(=O)N[C@@H](CC(C)C)C(=O)N1CCC[C@H]1C(=O)N[C@@H](C)C(=O)N[C@@H](CC(C)C)C(=O)N[C@H](C(=O)N[C@@H](CO)C(=O)N[C@@H](Cc1c[nH]c2ccccc12)C(=O)N[C@H](C(=O)N[C@@H](CCCCN)C(=O)N[C@@H](CCCNC(=N)N)C(=O)N[C@@H](CCCCN)C(=O)N[C@@H](CCCNC(=N)N)C(=O)N[C@@H](CCC(N)=O)C(=O)N[C@@H](CCC(N)=O)C(N)=O)[C@@H](C)CC)[C@@H](C)CC)[C@@H](C)O)[C@@H](C)O)C(C)C)C(C)C [melittin, reference compound] | 31% | 27% | 31% | K+ content release ([2]; 10 μM peptide): 31%; % K+-release [2]: 30.9 ± 2.1%
598-632 Q604C: peptide 598-632 with Q604C substitution | 6% | 31% | 30% | 
598-616 Q604C: peptide 598-616 with Q604C substitution (ILNRLVCFVKDRISVVQAL; UniProt P03385 631-649, looked up, variant Q604C) | 29% | 28% | 20% | 
598-616 R601C: peptide 598-616 with R601C substitution (ILNCLVQFVKDRISVVQAL; UniProt P03385 631-649, looked up, variant R601C) | 32% | 13% | 10% | 
598-616 R609A: peptide 598-616 with Arg 609 Ala mutation (ILNRLVQFVKDAISVVQAL; UniProt P03385 631-649, looked up, variant R609A) | 11% | 0% | 0% | loss of K+ release relative to wild type peptide 598-616 [2]: 75%; % K+-release [2]: 9.9 ± 1.8%
WT: wild type MoMuLV ecotropic envelope protein |  |  |  | Fusion NIH3T (NIH3T3 cells [3]): 0; Titer (relative β-gal titer) (NIH3T3 cells [4]): 100; Fusion 293T/XC6 [5]: 100; Cell Surface Expression [6]: 100
Magainin [reference compound] | 8% | 51% | 43% | 
Triton X-100 [reference compound] | 100% | 100% | 100% | % K+-release [2]: 100%
ILNRLVQFVKDRISVVQAL (Moloney murine sarcoma virus) [Peptide 598-616] | 9% | 24% | 13% | K+ content release ([2]; 10 μM peptide): 29%; K+ content release ([2]; 30 μM peptide, data not shown): about 70%; % K+-release [2]: 29.3 ± 3.6%; estimated percent α-helicity ([7]; 50 μM peptide in presence of liposomes, lipid to peptide 100:1): ~60%; secondary structure by CD (in words) [7]: becomes α-helical; aggregation state by EPR (in words) [8]: monomeric association with the membrane
598-632: peptide representing the whole cytoplasmic tail region (598-632) [Peptide 598-632] |  |  |  | secondary structure by CD (in words) [7]: higher helical content in the presence of membrane vesicles than the peptide 598-616 alone; aggregation state by EPR (in words) [8]: monomeric association with the membrane
V606-R1 peptide: nitroxide-labeled peptide 598-616 V606C(R1) (ILNRLVQFC(R1)KDRISVVQAL; reading uncertain; UniProt P03385 631-649, looked up, variant V606C) |  |  |  | contribution from the unbound peptide ([8]; upon addition to liposomes, judged from EPR line shapes): less than 1%
602-616: peptide of MoMuLV env residues 602-616 (LVQFVKDRISVVQAL; UniProt P03385 635-649, looked up, fragment) [Peptide 602-616] | 2% | 5% | 4% | 
598-616 D608C: peptide 598-616 with D608C substitution (ILNRLVQFVKCRISVVQAL; UniProt P03385 631-649, looked up, variant D608C) | 5% | 11% | 7% | 
598-611: peptide of MoMuLV env residues 598-611 (ILNRLVQFVKDRIS; UniProt P03385 631-644, looked up, fragment) [Peptide 598-611] |  | 22% | 13% | 
